Source: patent publication US20090318496A1, “PREPARATION CONTAINING FIBRATE AGENT AND PROCESS FOR PRODUCING THE SAME” (ASKA Pharmaceutical Co., Ltd., priority 2006, published 2009)

Columns and labels:
[1] = test system: lipid and others in blood (TC, TG, PL, NEFA in serum); test: Decrease of lipid in blood by combination use of fenofibrate and pitavastatin in dog (serum TC, TG, PL, NEFA); assay type: in vivo
Description: Dogs [female and male beagles (YAKUKEN BEAGLE) (11 male dogs and 2 female dogs, 27 to 73 months old)] were used for the examination. Incidentally, each of the dogs was accommodated in a separate bracket cage in a breeding room under the following conditions: a room temperature of 23±3° C., a humidity of 50±10%, a light period of 8:00 to 20:00, and a dark period of 20:00 to 8:00. Moreover, the dog was given 300 g of CD-5M (manufactured by CLEA Japan, Inc.) as a food once a day. Incidentally, the dog was freely allowed to have tap water.
(§1) Four hours (Day0-4 hr) and 24 hours (Day0-24 hr) after feeding on the day before the administration start day, blood was collected from antebrachial radial veins, and serum and plasma containing sodium citrate (a citric sodium aqueous solution having a concentration of 3.8% by weight) were obtained. Then using the serum, the total cholesterol (TC), the triglyceride (TG), the phospholipid (PL), and the free fatty acid (NEFA) were quantitatively determined by a Toshiba automatic analyzer (manufactured by Toshiba Medical Systems Corporation, TBA-120FR). Moreover, using the sodium citrate-containing plasma, the amount of fibrinogen was quantitatively determined in accordance with the thrombin time method.
(§2) Incidentally, feeding was performed immediately after every administration.
(§3) Blood was collected after 4 hours of the seventh administration (Day7-4 hr). Using the same manner as in the case of the Day0-4 hr, serum and sodium citrate-containing plasma were obtained, and each of the examinations was performed.
Incidentally, the obtained value from each test was regarded as a significant difference when the difference value was less than 5%.
Incidentally, the relative index of each component was calculated based on the formula: (the average value of the concentration in the blood after the administration)/(the average value of the concentration in the blood before the administration).

fibrinogen = test: Amount of fibrinogen in sodium citrate-containing plasma of dogs, thrombin time method; assay type: in vivo; conditions: dog sodium citrate plasma, Day 7-4 hr minus Day0-4 hr; FEN 20 mg/kg and/or PIT 2 mg/kg orally once a day for 7 days; average ± standard error
Description: as §1, §2, §3
The quantitation results were shown as “an average value±a standard error”. […] Incidentally, the obtained value from each test was regarded as a significant difference when the difference value was less than 5%.

[2] = pitavastatin 4 mg a day for 6 days vs combined with fenofibrate 160 mg a day or gemfibrozil 600 mg twice a day for 7 days; cited from earlier work
[3] = Day 7-4 hr minus Day0-4 hr, FEN 20 mg/kg and/or PIT 2 mg/kg orally once a day for 7 days, average ± standard error
[4] = Day 7-4 hr, FEN 20 mg/kg and/or PIT 2 mg/kg orally for 7 days

Structure (SMILES)	ΔNEFA [1, 3] [μEq/L]	ΔPL [1, 3] [mg/dL]	ΔTG [1, 3] [mg/dL]	ΔFibrinogen (fibrinogen) [mg/dL]	ΔTC [1, 3] [mg/dL]	Relative index of NEFA (average concentration after/before administration) [1, 4]	Relative index of PL (average concentration after/before administration) [1, 4]	Relative index of TC (average concentration after/before administration) [1, 4]	Relative index of TG (average concentration after/before administration) [1, 4]	Drug interactions (pharmacokinetic parameter, concentration of unchanged pitavastatin in the blood) [2]
CC(C)OC(=O)C(C)(C)Oc1ccc(C(=O)c2ccc(Cl)cc2)cc1 [FEN, Fenofibrate]	−25 ± 20	-71 ± 11	-38.7 ± 16.3	6 ± 22	–	–	–	–	–	–
O=C(O)C[C@H](O)C[C@H](O)/C=C/c1c(C2CC2)nc2ccccc2c1-c1ccc(F)cc1 [PIT, Pitavastatin]	−6 ± 102	-61 ± 9	-11.5 ± 4.8	11 ± 11	-25.0 ± 3.6	0.978	0.795	0.797	0.791	low degree of the drug interactions
